According to ChEMBL document CHEMBL4699602, “Stapled and Xenopus Glucagon-Like Peptide 1 (GLP-1)-Based Dual GLP-1/Gastrin Receptor Agonists with Improved Metabolic Benefits in Rodent Models of Obesity and Diabetes” (J Med Chem, 2020):
Where a SMILES comes first, the peptide text is derived from it.

molecular target: Glucagon-like peptide 1 receptor (Homo sapiens, UniProt P43220); test: Agonist activity at human GLP-1R expressed in HEK293 cells assessed as stimulation of cAMP accumulation incubated for 20 mins; format: functional, cell-based
Sequence (P43220 whole entry): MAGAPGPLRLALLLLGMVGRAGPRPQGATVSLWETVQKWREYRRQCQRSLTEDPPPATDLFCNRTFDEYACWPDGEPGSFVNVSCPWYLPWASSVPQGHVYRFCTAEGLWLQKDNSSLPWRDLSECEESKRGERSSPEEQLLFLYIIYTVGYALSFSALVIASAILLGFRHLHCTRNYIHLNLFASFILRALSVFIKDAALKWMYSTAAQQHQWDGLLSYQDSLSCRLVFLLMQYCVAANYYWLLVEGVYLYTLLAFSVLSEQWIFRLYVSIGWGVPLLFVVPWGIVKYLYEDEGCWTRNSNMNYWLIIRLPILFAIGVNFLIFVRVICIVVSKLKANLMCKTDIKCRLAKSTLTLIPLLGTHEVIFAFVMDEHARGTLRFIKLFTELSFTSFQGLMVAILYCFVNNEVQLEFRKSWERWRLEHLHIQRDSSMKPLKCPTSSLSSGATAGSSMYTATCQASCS

| Structure (SMILES) | EC50 |
| --- | --- |
| CC[C@H](C)[C@H](NC(=O)[C@H](CC(C)C)NC(=O)[C@H](Cc1c[nH]c2ccccc12)NC(=O)[C@H](CCC(=O)O)NC(=O)[C@@H](NC(=O)[C@H](Cc1ccccc1)NC(=O)[C@H](CCC(=O)O)NC(=O)[C@H](CCCCN)NC(=O)[C@H](C)NC(=O)[C@H](CS)NC(=O)[C@H](CCC(=O)O)NC(=O)[C@H](CCC(=O)O)NC(=O)[C@H](CCC(=O)O)NC(=O)[C@H](CC(C)C)NC(=O)[C@H](Cc1ccc(O)cc1)NC(=O)[C@H](CCC(=O)O)NC(=O)[C@H](CS)NC(=O)[C@@H](NC(=O)[C@H](CC(=O)O)NC(=O)[C@H](CC(N)=O)NC(=O)[C@@H](NC(=O)[C@H](Cc1ccc(O)cc1)NC(=O)[C@@H](NC(=O)CNC(=O)[C@H](CCC(=O)O)NC(=O)C(C)(C)NC(=O)[C@@H](N)Cc1c[nH]cn1)[C@@H](C)O)[C@@H](C)O)C(C)C)[C@@H](C)CC)C(=O)N[C@@H](CCCCN)C(=O)NCC(=O)N[C@@H](CCCCN)C(=O)N1CCC[C@H]1C(=O)N[C@@H](CO)C(=O)N[C@@H](CO)C(=O)NCC(=O)N[C@@H](C)C(=O)N1CCC[C@H]1C(=O)N1CCC[C@H]1C(=O)N1CCC[C@H]1C(=O)N[C@@H](CO)C(N)=O (HELM PEPTIDE1{H.[Aib].E.G.T.Y.T.N.D.V.C.E.Y.L.E.E.E.C.A.K.E.F.I.E.W.L.I.K.G.K.P.S.S.G.A.P.P.P.S.[am]}$$$$V2.0) | 0.15 nM |
| CC[C@H](C)[C@H](NC(=O)[C@H](CC(C)C)NC(=O)[C@H](Cc1c[nH]c2ccccc12)NC(=O)[C@H](CCC(=O)O)NC(=O)[C@@H](NC(=O)[C@H](Cc1ccccc1)NC(=O)[C@H](CCC(=O)O)NC(=O)[C@H](CCCCN)NC(=O)[C@H](C)NC(=O)[C@H](CS)NC(=O)[C@H](CCC(=O)O)NC(=O)[C@H](CCC(=O)O)NC(=O)[C@H](CCC(=O)O)NC(=O)[C@H](CC(C)C)NC(=O)[C@H](Cc1ccc(O)cc1)NC(=O)[C@H](CCC(=O)O)NC(=O)[C@H](CS)NC(=O)[C@@H](NC(=O)[C@H](CC(=O)O)NC(=O)[C@H](CC(N)=O)NC(=O)[C@@H](NC(=O)[C@H](Cc1ccc(O)cc1)NC(=O)[C@@H](NC(=O)CNC(=O)[C@H](CCC(=O)O)NC(=O)C(C)(C)NC(=O)[C@@H](N)Cc1c[nH]cn1)[C@@H](C)O)[C@@H](C)O)C(C)C)[C@@H](C)CC)C(=O)N[C@@H](CCCCN)C(=O)NCC(=O)N[C@@H](CCCCN)C(N)=O (HELM PEPTIDE1{H.[Aib].E.G.T.Y.T.N.D.V.C.E.Y.L.E.E.E.C.A.K.E.F.I.E.W.L.I.K.G.K.[am]}$$$$V2.0) | 0.32 nM |
| CC[C@H](C)[C@H](NC(=O)[C@H](CC(C)C)NC(=O)[C@H](Cc1c[nH]c2ccccc12)NC(=O)[C@H](CCC(=O)O)NC(=O)[C@@H](NC(=O)[C@H](Cc1ccccc1)NC(=O)[C@H](CCC(=O)O)NC(=O)[C@H](CCCCN)NC(=O)[C@H](CS)NC(=O)[C@H](C)NC(=O)[C@H](CCC(=O)O)NC(=O)[C@H](CCC(=O)O)NC(=O)[C@H](CCC(=O)O)NC(=O)[C@H](CC(C)C)NC(=O)[C@H](Cc1ccc(O)cc1)NC(=O)[C@H](CS)NC(=O)[C@@H](NC(=O)[C@@H](NC(=O)[C@H](CC(=O)O)NC(=O)[C@H](CC(N)=O)NC(=O)[C@@H](NC(=O)[C@H](Cc1ccc(O)cc1)NC(=O)[C@@H](NC(=O)CNC(=O)[C@H](CCC(=O)O)NC(=O)C(C)(C)NC(=O)[C@@H](N)Cc1c[nH]cn1)[C@@H](C)O)[C@@H](C)O)C(C)C)[C@@H](C)O)[C@@H](C)CC)C(=O)N[C@@H](CCCCN)C(=O)NCC(=O)N[C@@H](CCCCN)C(=O)N1CCC[C@H]1C(=O)N[C@@H](CO)C(=O)N[C@@H](CO)C(=O)NCC(=O)N[C@@H](C)C(=O)N1CCC[C@H]1C(=O)N1CCC[C@H]1C(=O)N1CCC[C@H]1C(=O)N[C@@H](CO)C(N)=O (HELM PEPTIDE1{H.[Aib].E.G.T.Y.T.N.D.V.T.C.Y.L.E.E.E.A.C.K.E.F.I.E.W.L.I.K.G.K.P.S.S.G.A.P.P.P.S.[am]}$$$$V2.0) | 0.12 nM |
| CC[C@H](C)[C@H](NC(=O)[C@H](CC(C)C)NC(=O)[C@H](Cc1c[nH]c2ccccc12)NC(=O)[C@H](CCC(=O)O)NC(=O)[C@@H](NC(=O)[C@H](Cc1ccccc1)NC(=O)[C@H](CCC(=O)O)NC(=O)[C@H](CCCCN)NC(=O)[C@H](CS)NC(=O)[C@H](C)NC(=O)[C@H](CCC(=O)O)NC(=O)[C@H](CCC(=O)O)NC(=O)[C@H](CCC(=O)O)NC(=O)[C@H](CC(C)C)NC(=O)[C@H](Cc1ccc(O)cc1)NC(=O)[C@H](CS)NC(=O)[C@@H](NC(=O)[C@@H](NC(=O)[C@H](CC(=O)O)NC(=O)[C@H](CC(N)=O)NC(=O)[C@@H](NC(=O)[C@H](Cc1ccc(O)cc1)NC(=O)[C@@H](NC(=O)CNC(=O)[C@H](CCC(=O)O)NC(=O)C(C)(C)NC(=O)[C@@H](N)Cc1c[nH]cn1)[C@@H](C)O)[C@@H](C)O)C(C)C)[C@@H](C)O)[C@@H](C)CC)C(=O)N[C@@H](CCCCN)C(=O)NCC(=O)N[C@@H](CCCCN)C(N)=O (HELM PEPTIDE1{H.[Aib].E.G.T.Y.T.N.D.V.T.C.Y.L.E.E.E.A.C.K.E.F.I.E.W.L.I.K.G.K.[am]}$$$$V2.0) | 0.26 nM |
| CC[C@H](C)[C@H](NC(=O)[C@H](CC(C)C)NC(=O)[C@H](Cc1c[nH]c2ccccc12)NC(=O)[C@H](CCC(=O)O)NC(=O)[C@@H](NC(=O)[C@H](Cc1ccccc1)NC(=O)[C@H](CCC(=O)O)NC(=O)[C@H](CS)NC(=O)[C@H](C)NC(=O)[C@H](C)NC(=O)[C@H](CCC(=O)O)NC(=O)[C@H](CCC(=O)O)NC(=O)[C@H](CCC(=O)O)NC(=O)[C@H](CC(C)C)NC(=O)[C@H](CS)NC(=O)[C@H](CCC(=O)O)NC(=O)[C@@H](NC(=O)[C@@H](NC(=O)[C@H](CC(=O)O)NC(=O)[C@H](CC(N)=O)NC(=O)[C@@H](NC(=O)[C@H](Cc1ccc(O)cc1)NC(=O)[C@@H](NC(=O)CNC(=O)[C@H](CCC(=O)O)NC(=O)C(C)(C)NC(=O)[C@@H](N)Cc1c[nH]cn1)[C@@H](C)O)[C@@H](C)O)C(C)C)[C@@H](C)O)[C@@H](C)CC)C(=O)N[C@@H](CCCCN)C(=O)NCC(=O)N[C@@H](CCCCN)C(=O)N1CCC[C@H]1C(=O)N[C@@H](CO)C(=O)N[C@@H](CO)C(=O)NCC(=O)N[C@@H](C)C(=O)N1CCC[C@H]1C(=O)N1CCC[C@H]1C(=O)N1CCC[C@H]1C(=O)N[C@@H](CO)C(N)=O (HELM PEPTIDE1{H.[Aib].E.G.T.Y.T.N.D.V.T.E.C.L.E.E.E.A.A.C.E.F.I.E.W.L.I.K.G.K.P.S.S.G.A.P.P.P.S.[am]}$$$$V2.0) | 0.19 nM |
| CC[C@H](C)[C@H](NC(=O)[C@H](CC(C)C)NC(=O)[C@H](Cc1c[nH]c2ccccc12)NC(=O)[C@H](CCC(=O)O)NC(=O)[C@@H](NC(=O)[C@H](Cc1ccccc1)NC(=O)[C@H](CCC(=O)O)NC(=O)[C@H](CS)NC(=O)[C@H](C)NC(=O)[C@H](C)NC(=O)[C@H](CCC(=O)O)NC(=O)[C@H](CCC(=O)O)NC(=O)[C@H](CCC(=O)O)NC(=O)[C@H](CC(C)C)NC(=O)[C@H](CS)NC(=O)[C@H](CCC(=O)O)NC(=O)[C@@H](NC(=O)[C@@H](NC(=O)[C@H](CC(=O)O)NC(=O)[C@H](CC(N)=O)NC(=O)[C@@H](NC(=O)[C@H](Cc1ccc(O)cc1)NC(=O)[C@@H](NC(=O)CNC(=O)[C@H](CCC(=O)O)NC(=O)C(C)(C)NC(=O)[C@@H](N)Cc1c[nH]cn1)[C@@H](C)O)[C@@H](C)O)C(C)C)[C@@H](C)O)[C@@H](C)CC)C(=O)N[C@@H](CCCCN)C(=O)NCC(=O)N[C@@H](CCCCN)C(N)=O (HELM PEPTIDE1{H.[Aib].E.G.T.Y.T.N.D.V.T.E.C.L.E.E.E.A.A.C.E.F.I.E.W.L.I.K.G.K.[am]}$$$$V2.0) | 0.49 nM |
| CC[C@H](C)[C@H](NC(=O)[C@H](CC(C)C)NC(=O)[C@H](Cc1c[nH]c2ccccc12)NC(=O)[C@H](CCC(=O)O)NC(=O)[C@@H](NC(=O)[C@H](CS)NC(=O)[C@H](CCC(=O)O)NC(=O)[C@H](CCCCN)NC(=O)[C@H](C)NC(=O)[C@H](C)NC(=O)[C@H](CCC(=O)O)NC(=O)[C@H](CCC(=O)O)NC(=O)[C@H](CS)NC(=O)[C@H](CC(C)C)NC(=O)[C@H](Cc1ccc(O)cc1)NC(=O)[C@H](CCC(=O)O)NC(=O)[C@@H](NC(=O)[C@@H](NC(=O)[C@H](CC(=O)O)NC(=O)[C@H](CC(N)=O)NC(=O)[C@@H](NC(=O)[C@H](Cc1ccc(O)cc1)NC(=O)[C@@H](NC(=O)CNC(=O)[C@H](CCC(=O)O)NC(=O)C(C)(C)NC(=O)[C@@H](N)Cc1c[nH]cn1)[C@@H](C)O)[C@@H](C)O)C(C)C)[C@@H](C)O)[C@@H](C)CC)C(=O)N[C@@H](CCCCN)C(=O)NCC(=O)N[C@@H](CCCCN)C(=O)N1CCC[C@H]1C(=O)N[C@@H](CO)C(=O)N[C@@H](CO)C(=O)NCC(=O)N[C@@H](C)C(=O)N1CCC[C@H]1C(=O)N1CCC[C@H]1C(=O)N1CCC[C@H]1C(=O)N[C@@H](CO)C(N)=O (HELM PEPTIDE1{H.[Aib].E.G.T.Y.T.N.D.V.T.E.Y.L.C.E.E.A.A.K.E.C.I.E.W.L.I.K.G.K.P.S.S.G.A.P.P.P.S.[am]}$$$$V2.0) | 0.22 nM |
| CC[C@H](C)[C@H](NC(=O)[C@H](CC(C)C)NC(=O)[C@H](Cc1c[nH]c2ccccc12)NC(=O)[C@H](CCC(=O)O)NC(=O)[C@@H](NC(=O)[C@H](CS)NC(=O)[C@H](CCC(=O)O)NC(=O)[C@H](CCCCN)NC(=O)[C@H](C)NC(=O)[C@H](C)NC(=O)[C@H](CCC(=O)O)NC(=O)[C@H](CCC(=O)O)NC(=O)[C@H](CS)NC(=O)[C@H](CC(C)C)NC(=O)[C@H](Cc1ccc(O)cc1)NC(=O)[C@H](CCC(=O)O)NC(=O)[C@@H](NC(=O)[C@@H](NC(=O)[C@H](CC(=O)O)NC(=O)[C@H](CC(N)=O)NC(=O)[C@@H](NC(=O)[C@H](Cc1ccc(O)cc1)NC(=O)[C@@H](NC(=O)CNC(=O)[C@H](CCC(=O)O)NC(=O)C(C)(C)NC(=O)[C@@H](N)Cc1c[nH]cn1)[C@@H](C)O)[C@@H](C)O)C(C)C)[C@@H](C)O)[C@@H](C)CC)C(=O)N[C@@H](CCCCN)C(=O)NCC(=O)N[C@@H](CCCCN)C(N)=O (HELM PEPTIDE1{H.[Aib].E.G.T.Y.T.N.D.V.T.E.Y.L.C.E.E.A.A.K.E.C.I.E.W.L.I.K.G.K.[am]}$$$$V2.0) | 0.59 nM |
